The text below walks through data of patent US9440941B2, “Substituted chroman-6-yloxy-cycloalkanes and their use as pharmaceuticals” (SANOFI, priority 2013, dated 2016).

One assay concerns Sprague-Dawley rats. The assay can be described thus: In vivo method for determining the effect on heart contractility (left ventricular dp/dtmax). On the set-up: species or system rat. The following applies: anesthetized male Sprague-Dawley rats, intravenous, vs solvent control. As for the experimental part: B) In Vivo Method for Determining the Effect on Heart Contractility
Adult male Sprague-Dawley rats (Harlan Winkelmann, Borchen, Germany) weighing 340 to 370 g were anesthetized with pentobarbital (100 mg/kg i.p.) and ventilated with a mixture of oxygen (40%) and room air (60%) at a tidal volume of 1 ml/100 g at 60 breaths/min. Body temperature was maintained at 36.5±0.3° C. with a heating lamp and was monitored with a rectal thermo sensor. Systemic blood pressure was measured in the left carotid artery using a pressure transducer (Combitrans; B. Braun Melsungen AG, Melsungen, Germany) connected to a DC-bridge-amplifier (PLUGSYS/ADC Type 663; Harvard Apparatus GmbH, March-Hugstetten, Germany). The electrocardiogram was measured as lead II via subcutaneously placed electrodes connected to a Heart-Rate-Module (PLUGSYS/HRM Type 669; Harvard Apparatus GmbH, March-Hugstetten, Germany). A micro-tip catheter (2 French, SPR-320; Millar Instruments, Houston, Tex., USA) was placed via the right carotid artery into the left ventricle, and the left ventricular pressure (LVP) and the enddiastolic pressure (EDP) were continuously measured. Registration of the hemodynamic data was performed via an analog digital converter by a personal computer using Notocord software (HEM version 3.5). Left ventricular contractility (dp/dtmax) and relaxation (dp/dtmin) were calculated from the LVP signal. For intravenous administration of the test compounds, the left jugular vein was prepared and a PP-50 catheter was inserted. Test compounds were administered either by intravenous bolus injection or by intravenous infusion by means of an infusion pump (Unita; B. Braun Melsungen AG, Melsungen, Germany). Test compounds were dissolved in a mixture of Glycofurol (75%) and Cremophor (25%), and the solution was further diluted with distilled water (1:4). In a typical experiment, several dosages of the test compound were administered subsequently at increasing doses. Statistical significance of the data obtained with drug vs control experiments, in which solvent was administered, was evaluated with the 2-sided ANOVA test (program Everstat). Increases in left ventricular contractility (percent increase) by example compounds are given in Table 3 in comparison to control experiments in which solvent was administered.

Another assay has as its target T1, human NCX1 (Homo sapiens, UniProt P32418).
T1 construct: expressed in transfected cells
The assay can be described thus: Inhibition of Ca2+ efflux out of cells (NCX1 forward mode), FLIPR calcium assay. Type of assay: cell-based. The following applies: CHO cells stably expressing human NCX1; Ca2+ efflux after Ionomycin; read-out: NCX1fw IC50 (inhibition of NCX1 in forward mode). An excerpt: The sodium/calcium exchanger NCX1 can transport calcium ions and sodium ions through the cell membrane. The transport is an exchange of Ca^2+ and Na^+ in two directions depending on membrane potential and ion gradients. At the first direction, named “forward mode” or “calcium export mode”, Ca^2+ is transported out of the cell and Na^+ is transported into the cell. At the other direction, named “reverse mode” or “calcium import mode”, the transport directions are vice versa. The effect of the compounds of the invention on NCX1 was determined in CHO cells stably expressing human NCX1 (gene symbol SLC8A1; cf. WO 2009/115238). The assay is based on the monitoring of intracellular Ca^2+ concentrations using a calcium-sensitive fluorescence dye which is detected by means of a FLIPR device (Fluorimetric Imaging Plate Reader, Molecular Devices).
Assay Technology—Forward Mode
The assay is based on the monitoring of intracellular Ca^2+ concentrations using the PBX Calcium Assay Kit from BD (Becton, Dickinson and Company) with calcium indicator dye 51-9000177BKa (BD, 640177). CHO cells expressing NCX1 were loaded with the dye, and after a preincubation period with the test compound, lonomycin (Calbiochem, 407950) was added. lonomycin is an ionophor for Ca^2+ ions mediating an increase of intracellular Ca^2+ ions. Consequently, intracellular Ca^2+ ions are exchanged against extracellular Na^+ ions (Ca^2+ efflux, forward mode). The decrease of intracellular Ca^2+ ions was detected by measuring the fluorescence of the calcium indicator dye at a wavelength of 520 nm by a FLIPR device.
Briefly, similarly as for the reverse mode, for the forward mode transport assay 18000 cells per well were seeded into a 96 well microplate (Corning COSTAR 3904) and incubated overnight in culture medium (cf. above). A total volume of 100 μl medium per well was used. For the preparation of the FLIPR assay, the culture medium was removed from the plates and 100 μl of assay buffer (133.8 mM NaCl (Sigma, S5886); 4.7 mM KCl (Sigma, P3911); 1.25 mM MgCl2 (Merck, 1.05833.0250); 3.5 mM CaCl2 (Merck, 1.02083.0250); 5 mM glucose (Sigma, G7021); 10 mM Hepes (Sigma, H4034); pH 7.4)) were added to each well in a washing step. Assay buffer was removed, and 100 μl of a solution of the test compound in assay buffer in different concentrations were added into the wells. Further, 100 μl of dye solution (0.09% (v/v) calcium indicator dye, 9.1% (v/v) signal enhancer (from PBX Calcium Assay Kit); in assay buffer) were added into each well. The plates were incubated in the dark at room temperature for 60 min. Meanwhile a 10 μM solution of lonomycin in assay buffer (additionally containing 0.05% fetal calf serum (cf. above); 4° C.) was prepared and stored in the wells of a 96 well microplate (96 well microplate, polypropylene, U-shape (Greiner Bio-One, 650201)). The fluorescence monitoring was performed at 60 measuring points with measurement intervals of 2 sec. After the fifth measuring point, 50 μl of the lonomycin solution were added to each well of the assay plate to give a final lonomycin concentration of 2 μM. For the determination of the IC50 values the minimal fluorescence value was subtracted from the maximal fluorescence value for the fifteenth to fifty-fifth measuring points. The calculation of the IC50 values via the percentage inhibitions of Ca^2+ efflux out of cells (forward mode) effected by the test compound was performed in Biost@t Speed 2.0. “NCX1fw IC50” in Table 2 means the IC50 value (in μM (micromol/liter)) for inhibition of NCX1 in forward mode.

Each structure is given as a SMILES string.

For the molecule `Cc1ccccc1[C@@H]1CCc2cc(O[C@H]3CC[C@H](C(=O)NCCOP(=O)([O-])[O-])CC3)ccc2O1.[Na+].[Na+]` [Example 303, Phosphoric acid mono-(2-{[trans-4-((S)-2-o-tolyl-chroman-6-yloxy)-cyclohexanecarbonyl]-amino}-ethyl) ester disodium salt], the “Contractility increase (left ventricular contractility)” value (“Contractility increase” below) with Sprague-Dawley rats (0.1 mg/kg) was found to be 69%; in the assay on Sprague-Dawley rats (0.3 mg/kg), 114%; with Sprague-Dawley rats (1.0 mg/kg), 172%. The IC50 (in general, the concentration that gives 50% inhibition) on human NCX1 amounted to 2.5 µM.

Turning to `Cc1ccccc1C1CCc2cc(OC3CCC(C(=O)NCc4ccno4)CC3)ccc2O1` (stereo not shown) [Example 158, N-(Isoxazol-5-ylmethyl)-4-(2-o-tolyl-chroman-6-yloxy)-cyclohexanecarboxamide], the figures for the “Contractility increase” value in the assay on Sprague-Dawley rats (0.1 mg/kg), in the assay on Sprague-Dawley rats (0.3 mg/kg) and in the assay on Sprague-Dawley rats (1.0 mg/kg) were 106%, 139% and 146%, respectively. In addition, the 50% inhibitory concentration (IC50) on human NCX1 stood at 2.2 µM.

On to `O=C(N[C@H]1CC[C@H](Oc2ccc3c(c2)CCC(c2ccccc2)O3)CC1)[C@@H]1CCCN1` (stereo partly drawn) [Example 180, (S)—N-[trans-4-(2-Phenyl-chroman-6-yloxy)-cyclohexyl]-pyrrolidine-2-carboxamide], for which the “Contractility increase” value is on record as 26% with Sprague-Dawley rats (0.1 mg/kg), 66% in the assay on Sprague-Dawley rats (0.3 mg/kg) and 99% with Sprague-Dawley rats (1.0 mg/kg). Moreover, at human NCX1, the IC50 worked out at 10 µM.

Turning to `Cc1ccccc1[C@@H]1CCc2cc(O[C@H]3CC[C@H](C(=O)NCCO)CC3)ccc2O1` [Example 268, trans-4-((S)-2-o-tolyl-chroman-6-yloxy)-cyclohexanecarboxylic acid (2-hydroxy-ethyl)-amide], the entries for the “Contractility increase” value with Sprague-Dawley rats (0.1 mg/kg), with Sprague-Dawley rats (0.3 mg/kg) and in the assay on Sprague-Dawley rats (1.0 mg/kg) were 108%, 154% and 179%, respectively. Besides, on human NCX1, the IC50 is 0.5 µM.

As to `Cc1ccccc1C1CCc2cc(OC3CCC(NCc4c(C)nn(C)c4C)CC3)ccc2O1` (stereo not shown) [Example 177, 4-(2-o-Tolyl-chroman-6-yloxy)-N-(1,3,5-trimethylpyrazol-4-ylmethyl)-cyclohexylamine], the “Contractility increase” value with Sprague-Dawley rats (0.1 mg/kg) was 29%; in the assay on Sprague-Dawley rats (0.3 mg/kg), 81%; with Sprague-Dawley rats (1.0 mg/kg), 134%. For the same molecule, the IC50 on human NCX1 is 0.2 µM.

Take `NCC(=O)N[C@H]1CC[C@H](Oc2ccc3c(c2)CC[C@@H](c2ccccc2)O3)CC1` [Example 159, 2-Amino-N-[trans-4-((S)-2-phenyl-chroman-6-yloxy)-cyclohexyl]-acetamide]: the “Contractility increase” value in the assay with Sprague-Dawley rats (0.1 mg/kg) was 46%; in the assay on Sprague-Dawley rats (0.3 mg/kg), 104%; with Sprague-Dawley rats (1.0 mg/kg), 140%. The IC50 on human NCX1 stood at 2.5 µM.

As for `Cc1ccccc1C1CCc2cc(O[C@H]3CC[C@H](N)CC3)ccc2O1.Cl` (stereo partly drawn) [Example 156, trans-4-(2-o-Tolyl-chroman-6-yloxy)-cyclohexylamine], the “Contractility increase” value with Sprague-Dawley rats (0.1 mg/kg) is reported as 44%; in the assay on Sprague-Dawley rats (0.3 mg/kg), 110%; with Sprague-Dawley rats (1.0 mg/kg) it was 171%. At human NCX1, the IC50 was 1.5 µM.
